Test results as given in paper PMC7179653 (Antimicrobial Agents and Chemotherapy, 2020).
Read-outs that look alike come from different tables or passages of the source.

Experiments:
[1] = Drug-drug interaction analysis nacubactam/meropenem (ANCOVA, geometric mean ratios); assay type: in vivo, human; settings: nacubactam 2,000 mg single dose, 90% CI
Procedure: All participants in the active group received a single 2,000-mg dose of both drugs on day 3 and q8h on days 4 to 8, with a final single dose of both drugs on the morning of day 9. A washout period of approximately 24 h between treatments was provided.

[2] = SAD study: single-dose nacubactam pharmacokinetics (plasma/urine, LC-MS/MS, noncompartmental); assay type: in vivo; settings: human, iv; for AUC(0-inf) / AUC(0-t) / Cmax / Tmax / k el / clearance / Vd / half-life: plasma
Procedure: Study treatments were administered as 30-min (SAD study) or 90-min (MAD study) i.v. infusions, the latter to investigate the pharmacokinetics using a longer infusion time, which is commonly used to increase the time above the MIC of β-lactams ([15]). The choice of a 90-min infusion time for the MAD study was dictated by the stability and toxicology data available at the time the study was being designed. […] Safety assessments included monitoring of AEs, laboratory safety tests (hematology, serum chemistry, and urinalysis), 12-lead ECG (discrete recordings and 24-h Holter recording), and vital signs (blood pressure, pulse rate, and body temperature). In the SAD study, safety assessments were performed predose at screening, at day 1, postdose periodically on days 1, 2, and 7 (follow-up), and at early withdrawal, if relevant. […] In the MAD study, safety assessments were done predose at screening, at day 2, postdose periodically on days 1, 2, 4, 7, and 8, on days 13 to 15 (follow-up), and at early withdrawal, if relevant. […] On all other days, a single predose sample was collected for pharmacokinetic evaluation prior to the morning infusion. Blood was collected into lithium-heparin tubes and stored at a nominal –80°C temperature until analysis.

[3] = 1000 mg, single i.v. dose 1,000 mg, n = 6, mean (SD)
[4] = 2000 mg, single i.v. dose 2,000 mg, n = 6, mean (SD)
[5] = single i.v. dose 50 mg, n = 6, mean (SD)
[6] = single i.v. dose 150 mg, n = 6, mean (SD)
[7] = single i.v. dose 500 mg, n = 6, mean (SD)

**Q.** Which “CLR GMR, monotherapy vs combination with meropenem” value ([1]; 0.85 to 1.07) does the source give for `NCCONC(=O)[C@@H]1CC[C@@H]2CN1C(=O)N2OS(=O)(=O)O` [Nacubactam] here?
**A.** Its value is 0.95.

**Q.** And the “Vss GMR, monotherapy vs combination with meropenem” value ([1]; 0.87 to 1.11)?
**A.** Its value is 0.98.

**Q.** And the CL renal ([2]; plasma and urine, single i.v. doses, 6.86 ± 0.64 to 9.66 ± 1.66, read-out: mean CLR (renal clearance), range over the five dose levels)?
**A.** The CL renal was 114 to 161 mL/min.

**Q.** And the AUC(0-inf) [2, 3]?
**A.** The AUC(0-inf) was 143 µg·h/mL.

**Q.** And the AUC(0-t) [2, 3]?
**A.** Its AUC(0-t) is 142 µg·h/mL.

**Q.** What about the Cmax [2, 3] of the same compound?
**A.** Its Cmax is 72 µg/mL.

**Q.** And the Tmax [2, 3]?
**A.** The Tmax was 0.5 h.

**Q.** What about the k el [2, 3] of the same compound?
**A.** The k el was 9.72e-05 s⁻¹.

**Q.** What about the clearance ([2]; 1000 mg, single i.v. dose 1,000 mg, n = 6, mean (SD), read-out: CL (converted)) of the same compound?
**A.** Its clearance is 117 mL/min.

**Q.** What about the Vd ([2]; 1000 mg, single i.v. dose 1,000 mg, n = 6, mean (SD), read-out: Vss) of the same compound?
**A.** The Vd was 17 L.

**Q.** What about the half-life ([2]; 1000 mg, single i.v. dose 1,000 mg, n = 6, mean (SD), read-out: t1/2 (converted)) of the same compound?
**A.** The half-life was 2.05 h.

**Q.** What about the AUC(0-inf) [2, 4] of the same compound?
**A.** Its AUC(0-inf) is 229 µg·h/mL.

**Q.** And the AUC(0-t) [2, 4]?
**A.** Its AUC(0-t) is 229 µg·h/mL.

**Q.** And the Cmax [2, 4]?
**A.** The Cmax was 112 µg/mL.

**Q.** And the Tmax [2, 4]?
**A.** Its Tmax is 0.5 h.

**Q.** What about the k el [2, 4] of the same compound?
**A.** Its k el is 8.61e-05 s⁻¹.

**Q.** And the clearance ([2]; 2000 mg, single i.v. dose 2,000 mg, n = 6, mean (SD), read-out: CL (converted))?
**A.** The clearance was 146 mL/min.

**Q.** And the Vd ([2]; 2000 mg, single i.v. dose 2,000 mg, n = 6, mean (SD), read-out: Vss)?
**A.** The Vd was 20.6 L.

**Q.** And the half-life ([2]; 2000 mg, single i.v. dose 2,000 mg, n = 6, mean (SD), read-out: t1/2 (converted))?
**A.** The half-life was 2.36 h.

**Q.** What about the AUC(0-inf) [2, 5] of the same compound?
**A.** Its AUC(0-inf) is 5.21 µg·h/mL.

**Q.** What about the AUC(0-t) [2, 5] of the same compound?
**A.** Its AUC(0-t) is 5.08 µg·h/mL.

**Q.** What about the Cmax [2, 5] of the same compound?
**A.** The Cmax was 2.69 µg/mL.

**Q.** What about the Tmax [2, 5] of the same compound?
**A.** The Tmax was 0.54 h.

**Q.** And the k el [2, 5]?
**A.** Its k el is 0.000106 s⁻¹.

**Q.** What about the clearance ([2]; single i.v. dose 50 mg, n = 6, mean (SD), read-out: CL (converted)) of the same compound?
**A.** Its clearance is 164 mL/min.

**Q.** And the Vd ([2]; single i.v. dose 50 mg, n = 6, mean (SD), read-out: Vss)?
**A.** The Vd was 22.4 L.

**Q.** What about the half-life ([2]; single i.v. dose 50 mg, n = 6, mean (SD), read-out: t1/2 (converted)) of the same compound?
**A.** Its half-life is 1.83 h.

**Q.** And the AUC(0-inf) [2, 6]?
**A.** The AUC(0-inf) was 16.3 µg·h/mL.

**Q.** What about the AUC(0-t) [2, 6] of the same compound?
**A.** The AUC(0-t) was 16.1 µg·h/mL.

**Q.** And the Cmax [2, 6]?
**A.** Its Cmax is 9.02 µg/mL.

**Q.** What about the Tmax [2, 6] of the same compound?
**A.** The Tmax was 0.5 h.

**Q.** And the k el [2, 6]?
**A.** Its k el is 0.000111 s⁻¹.

**Q.** And the clearance ([2]; single i.v. dose 150 mg, n = 6, mean (SD), read-out: CL (converted))?
**A.** The clearance was 157 mL/min.

**Q.** What about the Vd ([2]; single i.v. dose 150 mg, n = 6, mean (SD), read-out: Vss) of the same compound?
**A.** Its Vd is 20.2 L.

**Q.** And the half-life ([2]; single i.v. dose 150 mg, n = 6, mean (SD), read-out: t1/2 (converted))?
**A.** The half-life was 1.76 h.

**Q.** And the AUC(0-inf) [2, 7]?
**A.** Its AUC(0-inf) is 53.9 µg·h/mL.

**Q.** And the AUC(0-t) [2, 7]?
**A.** Its AUC(0-t) is 53.6 µg·h/mL.

**Q.** And the Cmax [2, 7]?
**A.** The Cmax was 31.3 µg/mL.

**Q.** What about the Tmax [2, 7] of the same compound?
**A.** The Tmax was 0.5 h.

**Q.** What about the k el [2, 7] of the same compound?
**A.** The k el was 0.000108 s⁻¹.

**Q.** And the clearance ([2]; single i.v. dose 500 mg, n = 6, mean (SD), read-out: CL (converted))?
**A.** The clearance was 156 mL/min.

**Q.** What about the Vd ([2]; single i.v. dose 500 mg, n = 6, mean (SD), read-out: Vss) of the same compound?
**A.** Its Vd is 19.6 L.

**Q.** What about the half-life ([2]; single i.v. dose 500 mg, n = 6, mean (SD), read-out: t1/2 (converted)) of the same compound?
**A.** Its half-life is 1.77 h.

**Q.** What about the clearance ([2]; single i.v. doses 50 to 2,000 mg, read-out: mean CL, range across doses) of the same compound?
**A.** Its clearance is 117 to 164 mL/min.

**Q.** And the Vd ([2]; single i.v. doses 50 to 2,000 mg, read-out: mean Vss, range across doses)?
**A.** The Vd was 17 to 22.4 L.

**Q.** What about the half-life ([2]; single i.v. doses, 1.76 ± 0.17 to 2.36 ± 0.46, read-out: mean apparent terminal elimination half-life (t1/2), range across doses) of the same compound?
**A.** Its half-life is 1.76 to 2.36 h.
